Source: paper PMC8449129, “Single tracer-based protocol for broad-spectrum kinase profiling in live cells with NanoBRET” (STAR Protocols, 2021)

Key:
Assay in all cases: cell-based
Set-up in all cases: NanoBRET live-cell target engagement; % occupancy from displacement of tracer K10 on NanoLuc-kinase fusions, mean n=3
Conditions in all cases: HEK293, read-out: % inhibition
[1] = molecular target: FGFR2 (Homo sapiens, UniProt P21802)
Method in brief: (§1)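 Live-cell NanoBRET target engagement: cells expressing kinase–NanoLuc fusion with tracer treated with compound 2 h at 37 °C, 5% CO2. BRET read from donor (450 nm) and acceptor (610/630 nm) emission with 20 μM extracellular NanoLuc inhibitor; % occupancy calculated relative to tracer+DMSO and zero-BRET controls.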

[2] = molecular target: PHKG2 (Homo sapiens, UniProt P15735)
Method in brief: as §1

[3] = molecular target: SIK3 (Homo sapiens, UniProt Q9Y2K2)
Method in brief: as §1

[4] = molecular target: CHEK2 (Homo sapiens, UniProt O96017)
Method in brief: as §1

[5] = molecular target: BRSK2 (Homo sapiens, UniProt Q8IWQ3)
Method in brief: as §1

[6] = molecular target: CDK15 (Homo sapiens, UniProt Q96Q40)
Sequence of CDK15 (Q96Q40 whole entry): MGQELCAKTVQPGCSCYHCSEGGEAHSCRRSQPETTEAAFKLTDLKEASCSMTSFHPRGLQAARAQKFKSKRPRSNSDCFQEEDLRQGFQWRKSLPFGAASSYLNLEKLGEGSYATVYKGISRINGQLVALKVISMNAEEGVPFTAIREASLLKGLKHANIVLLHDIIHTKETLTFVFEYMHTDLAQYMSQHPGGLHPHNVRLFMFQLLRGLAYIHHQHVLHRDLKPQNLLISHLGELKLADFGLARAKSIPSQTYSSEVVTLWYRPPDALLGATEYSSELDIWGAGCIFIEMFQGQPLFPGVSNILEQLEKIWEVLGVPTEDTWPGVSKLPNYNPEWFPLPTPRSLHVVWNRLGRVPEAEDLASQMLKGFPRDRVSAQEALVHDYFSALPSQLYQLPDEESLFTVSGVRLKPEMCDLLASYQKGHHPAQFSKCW
Method in brief: as §1

[7] = molecular target: MYLK2 (Homo sapiens, UniProt Q9H1R3)
Method in brief: as §1

[8] = molecular target: SIK1 (Homo sapiens, UniProt P57059)
Sequence of SIK1 (P57059 whole entry): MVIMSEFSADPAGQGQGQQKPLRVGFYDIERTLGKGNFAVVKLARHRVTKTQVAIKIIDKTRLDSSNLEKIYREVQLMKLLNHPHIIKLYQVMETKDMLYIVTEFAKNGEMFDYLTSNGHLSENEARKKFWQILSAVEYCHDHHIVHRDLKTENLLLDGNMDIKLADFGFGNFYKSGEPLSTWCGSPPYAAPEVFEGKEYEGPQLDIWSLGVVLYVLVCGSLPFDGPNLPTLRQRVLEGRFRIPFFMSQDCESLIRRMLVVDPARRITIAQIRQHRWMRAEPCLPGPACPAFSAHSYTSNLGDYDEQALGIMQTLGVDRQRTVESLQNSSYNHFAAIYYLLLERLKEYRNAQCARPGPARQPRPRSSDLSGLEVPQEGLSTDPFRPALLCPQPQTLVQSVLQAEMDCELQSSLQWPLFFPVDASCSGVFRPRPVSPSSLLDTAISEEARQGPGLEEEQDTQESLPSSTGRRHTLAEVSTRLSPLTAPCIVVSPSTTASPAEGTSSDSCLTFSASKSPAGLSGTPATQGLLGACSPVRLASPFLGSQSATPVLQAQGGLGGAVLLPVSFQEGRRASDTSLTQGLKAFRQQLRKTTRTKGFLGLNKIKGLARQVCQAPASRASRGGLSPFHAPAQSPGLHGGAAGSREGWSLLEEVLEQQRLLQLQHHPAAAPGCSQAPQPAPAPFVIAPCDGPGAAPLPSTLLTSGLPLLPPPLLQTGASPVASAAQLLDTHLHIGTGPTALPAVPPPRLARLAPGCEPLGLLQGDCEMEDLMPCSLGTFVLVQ
Method in brief: as §1

[9] = molecular target: SRMS (Homo sapiens, UniProt Q9H3Y6)
Method in brief: as §1

[10] = molecular target: TLK1 (Homo sapiens, UniProt Q9UKI8)
Method in brief: as §1

[11] = molecular target: ULK2 (Homo sapiens, UniProt Q8IYT8)
Sequence of ULK2 (Q8IYT8 whole entry): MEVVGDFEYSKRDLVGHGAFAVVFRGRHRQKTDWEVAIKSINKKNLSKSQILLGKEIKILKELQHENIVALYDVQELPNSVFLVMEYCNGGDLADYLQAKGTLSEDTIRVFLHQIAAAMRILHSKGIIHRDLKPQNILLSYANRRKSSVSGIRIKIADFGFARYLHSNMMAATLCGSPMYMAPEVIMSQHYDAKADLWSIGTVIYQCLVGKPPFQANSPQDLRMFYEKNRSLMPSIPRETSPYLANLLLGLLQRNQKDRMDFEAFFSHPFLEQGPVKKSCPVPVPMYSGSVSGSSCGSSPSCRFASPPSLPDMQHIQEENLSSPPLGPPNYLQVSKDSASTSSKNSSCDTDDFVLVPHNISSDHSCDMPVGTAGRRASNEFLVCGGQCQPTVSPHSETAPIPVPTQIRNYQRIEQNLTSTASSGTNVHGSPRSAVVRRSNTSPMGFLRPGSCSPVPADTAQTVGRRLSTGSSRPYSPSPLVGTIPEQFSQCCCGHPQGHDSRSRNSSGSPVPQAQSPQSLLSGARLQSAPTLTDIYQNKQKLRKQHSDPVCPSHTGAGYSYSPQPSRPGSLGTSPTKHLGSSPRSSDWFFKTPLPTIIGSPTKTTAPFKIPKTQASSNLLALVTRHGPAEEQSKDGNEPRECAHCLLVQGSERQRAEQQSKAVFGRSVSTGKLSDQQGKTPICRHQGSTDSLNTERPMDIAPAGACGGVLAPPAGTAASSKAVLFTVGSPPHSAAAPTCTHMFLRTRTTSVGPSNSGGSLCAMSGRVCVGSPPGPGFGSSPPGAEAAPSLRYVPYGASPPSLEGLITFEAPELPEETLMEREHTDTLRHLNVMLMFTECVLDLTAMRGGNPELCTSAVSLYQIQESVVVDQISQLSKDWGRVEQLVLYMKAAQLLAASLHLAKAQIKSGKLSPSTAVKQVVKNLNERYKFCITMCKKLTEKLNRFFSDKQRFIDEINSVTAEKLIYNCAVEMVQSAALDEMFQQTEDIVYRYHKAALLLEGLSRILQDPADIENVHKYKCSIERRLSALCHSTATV
Method in brief: as §1

[12] = molecular target: ERN1 (Homo sapiens, UniProt O75460)
Method in brief: as §1

[13] = molecular target: CDKL3 (Homo sapiens, UniProt Q8IVW4)
Method in brief: as §1

[14] = molecular target: BMP2K (Homo sapiens, UniProt Q9NSY1)
Sequence of BMP2K (Q9NSY1 whole entry): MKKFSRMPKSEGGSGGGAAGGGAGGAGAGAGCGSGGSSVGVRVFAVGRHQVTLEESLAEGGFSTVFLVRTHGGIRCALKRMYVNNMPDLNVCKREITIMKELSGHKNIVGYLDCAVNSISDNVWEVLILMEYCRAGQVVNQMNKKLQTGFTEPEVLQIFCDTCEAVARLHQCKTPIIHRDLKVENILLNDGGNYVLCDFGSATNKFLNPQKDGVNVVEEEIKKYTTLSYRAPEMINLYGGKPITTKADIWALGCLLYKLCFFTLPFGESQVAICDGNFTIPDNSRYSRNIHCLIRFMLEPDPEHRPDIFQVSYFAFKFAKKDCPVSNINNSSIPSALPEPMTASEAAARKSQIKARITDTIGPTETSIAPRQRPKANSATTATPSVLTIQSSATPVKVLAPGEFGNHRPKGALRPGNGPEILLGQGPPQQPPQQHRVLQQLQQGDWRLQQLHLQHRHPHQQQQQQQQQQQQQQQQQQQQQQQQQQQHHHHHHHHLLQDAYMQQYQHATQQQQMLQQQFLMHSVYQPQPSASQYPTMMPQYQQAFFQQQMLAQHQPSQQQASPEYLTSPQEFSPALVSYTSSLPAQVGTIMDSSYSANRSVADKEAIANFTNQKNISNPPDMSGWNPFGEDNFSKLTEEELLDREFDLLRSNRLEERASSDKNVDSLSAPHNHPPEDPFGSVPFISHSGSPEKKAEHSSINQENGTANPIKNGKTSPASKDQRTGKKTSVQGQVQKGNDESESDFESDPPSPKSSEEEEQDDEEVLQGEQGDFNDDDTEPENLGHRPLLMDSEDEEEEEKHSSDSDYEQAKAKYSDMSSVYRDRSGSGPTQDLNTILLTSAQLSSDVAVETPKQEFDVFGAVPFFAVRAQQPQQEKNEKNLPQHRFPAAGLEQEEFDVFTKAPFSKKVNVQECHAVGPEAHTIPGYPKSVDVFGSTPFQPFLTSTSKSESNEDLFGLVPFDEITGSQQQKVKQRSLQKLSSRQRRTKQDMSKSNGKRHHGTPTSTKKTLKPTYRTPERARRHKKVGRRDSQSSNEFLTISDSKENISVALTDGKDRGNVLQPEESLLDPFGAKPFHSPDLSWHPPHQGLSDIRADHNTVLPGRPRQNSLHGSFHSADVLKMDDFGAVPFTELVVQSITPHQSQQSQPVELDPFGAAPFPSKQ
Method in brief: as §1

[15] = molecular target: DAPK2 (Homo sapiens, UniProt Q9UIK4)
Method in brief: as §1

[16] = molecular target: INSR (Homo sapiens, UniProt P06213)
Sequence of INSR (P06213 whole entry): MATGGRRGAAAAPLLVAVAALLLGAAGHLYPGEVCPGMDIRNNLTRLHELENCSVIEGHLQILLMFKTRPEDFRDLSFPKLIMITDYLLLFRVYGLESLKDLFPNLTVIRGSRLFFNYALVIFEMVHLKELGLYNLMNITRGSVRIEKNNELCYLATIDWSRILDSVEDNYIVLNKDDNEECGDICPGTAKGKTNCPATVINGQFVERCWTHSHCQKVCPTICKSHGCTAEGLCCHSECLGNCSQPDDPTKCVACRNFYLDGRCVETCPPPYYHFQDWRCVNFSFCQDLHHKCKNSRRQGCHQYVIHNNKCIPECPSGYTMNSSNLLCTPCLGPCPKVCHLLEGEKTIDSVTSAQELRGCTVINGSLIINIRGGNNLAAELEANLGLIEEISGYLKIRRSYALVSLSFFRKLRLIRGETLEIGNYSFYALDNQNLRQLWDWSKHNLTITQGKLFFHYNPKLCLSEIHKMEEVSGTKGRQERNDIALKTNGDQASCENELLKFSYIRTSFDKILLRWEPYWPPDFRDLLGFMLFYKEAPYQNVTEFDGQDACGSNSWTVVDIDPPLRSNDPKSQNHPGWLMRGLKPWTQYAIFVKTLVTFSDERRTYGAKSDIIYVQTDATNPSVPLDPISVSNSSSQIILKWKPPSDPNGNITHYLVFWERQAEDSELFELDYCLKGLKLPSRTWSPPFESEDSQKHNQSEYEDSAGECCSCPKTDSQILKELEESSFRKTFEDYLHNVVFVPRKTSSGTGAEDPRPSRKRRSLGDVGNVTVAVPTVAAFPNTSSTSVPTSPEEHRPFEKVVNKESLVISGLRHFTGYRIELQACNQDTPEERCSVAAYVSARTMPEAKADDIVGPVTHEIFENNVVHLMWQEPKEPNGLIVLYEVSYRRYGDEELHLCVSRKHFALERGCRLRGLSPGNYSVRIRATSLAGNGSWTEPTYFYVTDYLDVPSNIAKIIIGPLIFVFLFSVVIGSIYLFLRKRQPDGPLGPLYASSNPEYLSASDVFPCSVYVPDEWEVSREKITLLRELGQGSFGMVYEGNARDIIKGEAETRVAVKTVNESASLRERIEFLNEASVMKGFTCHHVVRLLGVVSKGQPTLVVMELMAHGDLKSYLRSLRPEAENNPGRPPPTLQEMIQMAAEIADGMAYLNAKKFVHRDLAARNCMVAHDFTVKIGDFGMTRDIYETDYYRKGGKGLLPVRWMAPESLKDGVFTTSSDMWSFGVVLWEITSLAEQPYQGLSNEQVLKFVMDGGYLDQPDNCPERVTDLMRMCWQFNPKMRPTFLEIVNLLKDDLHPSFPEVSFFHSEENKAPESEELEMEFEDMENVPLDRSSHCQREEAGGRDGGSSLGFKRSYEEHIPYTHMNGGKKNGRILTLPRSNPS
Method in brief: as §1

[17] = molecular target: MAP3K9 (Homo sapiens, UniProt P80192)
Method in brief: as §1

[18] = molecular target: MAP3K19 (Homo sapiens, UniProt Q56UN5)
Method in brief: as §1

inhibition at 1 µM [1]: 10% | inhibition at 1 µM [2]: 3% | inhibition at 1 µM [3]: 0% | inhibition at 1 µM [4]: 0% | inhibition at 1 µM [5]: 3% | inhibition at 1 µM [6]: 3% | inhibition at 1 µM [7]: -16% | inhibition at 1 µM [8]: -4% | inhibition at 1 µM [9]: 0% | inhibition at 1 µM [10]: -5% | inhibition at 1 µM [11]: -1% | inhibition at 1 µM [12]: -3% | inhibition at 1 µM [13]: 8% | inhibition at 1 µM [14]: 11% | inhibition at 1 µM [15]: 3% | inhibition at 1 µM [16]: 20% | inhibition at 1 µM [17]: -1% | inhibition at 1 µM [18]: 6%
SMILES: C[C@@H](Oc1cc(-c2cnn(C3CCNCC3)c2)cnc1N)c1c(Cl)ccc(F)c1Cl [crizotinib]
